Literature values, collected in patent US20080057002A1, “Non-aqueous compositions containing urea and allantoin and methods for preparing same” (priority 2006, published 2008).

Conditions: expressed in g/100 g solvent @25 degree. C.

solubility of allantoin in ethanol (ethanol): < 0.1%
solubility of allantoin in propylene glycol (propylene glycol): < 0.1%
solubility of allantoin in water (water): 0.45%
SMILES: NC(=O)NC1NC(=O)NC1=O (stereo not drawn) [allantoin, (2,5-dioxo-4-imidazolidinyl) urea]
